From patent US20150031655A1, “COMBINATION OF LIVER X RECEPTOR MODULATOR AND ESTROGEN RECEPTOR MODULATOR FOR THE TREATMENT OF AGE-RELATED DISEASES” (UNIVERSITY OF NORTH DAKOTA, priority 2011, published 2015) come the findings set out here.

Data set [1] addresses T1, ERβ (Homo sapiens, UniProt Q92731).
T1 construct: endogenous in cells; host or cells: SH-SY5Y human neuroblastoma cells
The data set can be described thus: ChIP, ERβ binding to the ERE half site in the TH promoter. In kind it is cell-based. The note with it: SH-SY5Y, treatment alone vs control. On the procedure:
(§1) Human neuroblastoma SH-SY5Y cells were grown in DMEM/F12 medium containing 10% fetal bovine serum (FBS) and 1% antibiotic/antimycotic mix. Cells were maintained at 37° C. in a saturated humidity atmosphere containing 95% air and 5% CO2.
(§2) ChIP analysis was performed to evaluate the extent of ERα/ERβ and LXRα/LXRβ binding to the DNA elements in the TH promoter and α-synuclein promoter regions respectively using “SimpleChIP™ Enzymatic Chromatic IP kit” from Cell Signaling (Boston, Mass.).
(§3) Briefly, cells from each treatment group (3×10^6 cells) were washed with PBS, trypsinized, centrifuged at 5000 g. The pellet containing the cells was further washed with PBS and cross-linked using 37% formaldehyde for 15 min followed by the addition of glycine solution to cease the cross-linking reaction.
(§4) The cells were washed with 4× volumes of 1×PBS and centrifuged at ˜220 g for 5 min. The pellet was resuspended and incubated for 10 min in 5 ml of tissue lysis buffer containing DTT and protease and phosphatase inhibitors. The subsequent steps to isolate the cross-linked chromatin were performed according to the manufacturer's protocol.
(§5) The cross-linked chromatin from each sample was apportioned into four equal parts.

For data set [2], the target named is T2, ERα (Homo sapiens, UniProt P03372).
T2 construct: endogenous in cells; host or cells: SH-SY5Y human neuroblastoma cells
T2 sequence (P03372 1-595): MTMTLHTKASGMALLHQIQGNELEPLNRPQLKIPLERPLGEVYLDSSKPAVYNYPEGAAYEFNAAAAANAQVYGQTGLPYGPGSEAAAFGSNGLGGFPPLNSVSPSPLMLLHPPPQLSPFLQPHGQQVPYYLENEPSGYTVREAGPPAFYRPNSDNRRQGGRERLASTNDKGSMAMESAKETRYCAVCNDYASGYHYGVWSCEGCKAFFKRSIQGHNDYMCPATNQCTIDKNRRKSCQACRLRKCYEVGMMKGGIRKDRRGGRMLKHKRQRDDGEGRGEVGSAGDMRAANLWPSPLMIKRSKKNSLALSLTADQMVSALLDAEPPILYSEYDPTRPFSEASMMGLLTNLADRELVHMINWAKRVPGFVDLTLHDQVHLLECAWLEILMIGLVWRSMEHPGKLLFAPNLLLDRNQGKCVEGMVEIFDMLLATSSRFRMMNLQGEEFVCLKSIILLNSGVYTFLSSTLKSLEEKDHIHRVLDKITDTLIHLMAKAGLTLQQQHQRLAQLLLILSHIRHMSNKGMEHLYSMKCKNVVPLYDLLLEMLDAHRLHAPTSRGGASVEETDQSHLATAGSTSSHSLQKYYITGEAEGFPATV
The data set can be described thus: Western blot of ERα levels in the nucleus (nuclear translocation), SH-SY5Y cells. In kind it is cell-based. The note with it: 24 h, treatment alone vs control. On the procedure:
as §1

For a further data set, the system named is TH promoter. Nature of the data set: Dual-luciferase TH promoter assay. Type of data set: cell-based, human. The note with it: SH-SY5Y transfected with TH promoter-luciferase, 24 h. On the procedure: Constructs encoding ERE and TH promoter conjugated to the firefly luciferase gene were used in the study. Human neuroblastoma SH-SY5Y cells were plated in 96-well plates at a density of 2×10^4 cells/well. The cells were transfected when 80% confluent with 0.25 μg of either ERE-firefly Luciferase reporter construct, LXRE-firefly Luciferase reporter construct, or TH promotor-firefly Luciferase promoter construct. Respective non-inducible reporter constructs containing constitutively expressing Renilla luciferase were used as negative internal controls. Constitutively expressing GFP constructs were used as positive control to determine transfection efficiency. Cells were incubated for 24 hours with Opti-MEM serum free medium (Invitrogen, Carlsbad, Calif.) containing the reporter constructs dissolved in transfection reagent. After 24 hours the medium was changed and the cells were incubated in normal DMEM/F12 medium containing 10% FBS and cells were treated with the different treatment regimens. The cells were treated in triplicate and harvested 24 hours later and subjected to dual-luciferases assay. The dual-luciferase assay was performed using a “Dual-Luciferase Reporter Assay System” from Promega (Madison, Wis.). The luminescence recorded is expressed as Relative Luminescence Units (RLU) and normalized to per mg protein. Unit value was assigned to control and the magnitude of differences among the samples is expressed relative to the unit value of control cells.

Data set [3] has as its target T2, ERα. The data set can be described thus: ChIP, ERα binding to the ERE half site in the TH promoter. The note with it: SH-SY5Y, treatment alone vs control. Type of data set: cell-based. On the procedure:
as §1, §2, §3, §4, §5

A further data set concerns TNF-α. The data set can be described thus: TNF-α levels in ARPE-19 cells. In kind it is cell-based. The note with it: ARPE-19, 24 h, 10 μM, alone vs control.
The subject of another data set is ERα/β. The data set can be described thus: EMSA, binding of nuclear ER to probe for the ERE half site in the TH promoter. Type of data set: cell-based, human. The note with it: nuclear extracts of treated SH-SY5Y, treatment alone vs control.
The test system of the next data set is ARPE-19 cells. In kind it is cell-based. As for the experimental part:
ARPE-19 cells were treated with 0, 10 or 25 μM 27-OHC for 24 hours.

Data set [4] deals with T1, ERβ. The data set can be described thus: Western blot of ERβ levels in the nucleus (nuclear translocation), SH-SY5Y cells. Type of data set: cell-based. The note with it: 24 h, treatment alone vs control. On the procedure: as §1
Treated SH-SY5Y cells were washed with PBS and trypsinized to collect the cells and centrifuged at 5000 g. The pellet was washed again with PBS and homogenized in NE-PER tissue protein extraction reagent (Thermo Scientific, Rockford, Ill.) supplemented with protease and phosphatase inhibitors. Protein concentrations from the cytosolic and nuclear homogenates were determined with BCA protein assay.
Proteins (10 μg) were separated on SDS-PAGE gels, transferred to a polyvinylidene difluoride membrane (BioRad, Hercules, Calif.), and incubated with the following monoclonal antibodies: anti-TH mouse antibody (1:1000; Sigma Aldrich, Saint Louis, Mo.), anti-α-synuclein mouse antibody (1:500; Chemicon, Temecula, Calif.), anti-ERα rabbit antibody (1:500; Abcam, Cambridge, Mass.), anti-ERβ rabbit antibody (1:200; Upstate, Lake Placid, N.Y.), anti-LXRα rabbit antibody (1:500; Abcam, Cambridge, Mass.), anti-LXRβ mouse antibody (1:500; Abcam, Cambridge, Mass.).
β-actin and Lamin A were used as a gel loading control for cytosolic homogenates and nuclear homogenates respectively. The blots were developed with enhanced chemiluminescence (Immmun-star HRP chemiluminescent kit, Bio-Rad, Hercules, Calif.). Bands were visualized on a polyvinylidene difluoride membrane and analyzed by LabWorks 4.5 software on a UVP Bioimaging System (Upland, Calif.). Quantification of results was performed by densitometry and the results analyzed as total integrated densitometric values (arbitrary units).
(A western blot detects proteins with antibodies after separation by electrophoresis.)

T1 sequence (Q92731 whole entry): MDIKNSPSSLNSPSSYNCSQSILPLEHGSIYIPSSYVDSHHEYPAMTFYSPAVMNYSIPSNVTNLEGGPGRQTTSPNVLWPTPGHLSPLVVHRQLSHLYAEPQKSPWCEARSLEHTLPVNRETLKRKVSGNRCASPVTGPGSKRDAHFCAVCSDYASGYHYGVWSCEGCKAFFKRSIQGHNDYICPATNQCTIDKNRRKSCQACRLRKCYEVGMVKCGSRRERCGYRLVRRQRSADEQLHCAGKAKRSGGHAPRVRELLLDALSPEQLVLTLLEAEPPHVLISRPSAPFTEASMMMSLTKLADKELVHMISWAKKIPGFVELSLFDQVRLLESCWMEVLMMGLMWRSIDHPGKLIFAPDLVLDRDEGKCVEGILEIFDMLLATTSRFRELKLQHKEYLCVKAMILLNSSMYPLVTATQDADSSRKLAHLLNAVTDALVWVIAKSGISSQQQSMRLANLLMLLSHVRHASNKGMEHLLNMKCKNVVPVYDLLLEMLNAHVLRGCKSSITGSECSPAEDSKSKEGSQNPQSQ

Consider `C[C@@H](CO)CCC[C@@H](C)[C@H]1CC[C@H]2[C@@H]3CC=C4C[C@@H](O)CC[C@]4(C)[C@H]3CC[C@]12C` [27-OHC, 27-hydroxycholesterol], for which the “attenuation of ERβ binding to the ERE on the TH promoter” value at ERβ [1] came to 4 fold. Also, at ERα [2], the “nuclear translocation / nuclear levels of ERα” value is reported as “decrease”. The “reduction of TH promoter activity” value with TH promoter is given as ~4 fold. The “ERα binding to the ERE on the TH promoter” value at ERα [3] is given as “no significant attenuation”. Moreover, the TNF-α levels result in the data set on TNF-α is reported as “increases”. Moreover, in the data set with ERα/β, the “binding of nuclear ER to the DNA probe corresponding to the ERE-half site on the TH promoter” value is given as “lower binding”. Besides, the “toxicity to RPE cells” value with ARPE-19 cells is given as “toxic”. Moreover, the Aβ peptide production entry with ARPE-19 cells (ARPE-19, 0, 10 or 25 μM, 24 hours) is recorded as “dose-dependently increased”. Also, in the data set on ARPE-19 cells (ARPE-19, 10 or 25 μM, 24 hours), the “Ca^2+ homeostasis” value is “dyshomeostasis”; the ROS generation entry was “ROS generation”; the glutathione entry was “glutathione depletion”; the “levels of ER stress specific markers caspase 12 and gadd153” value is recorded as “increased”. Further, in the data set on ARPE-19 cells (ARPE-19, 10 or 25 μM, 24 hours), the “levels of NFκB and heme-oxygenase 1 (HO-1)” value was “increased”; the mitochondrial membrane potential result was “reduced”. Further, on ERβ [4], the “nuclear translocation / nuclear levels of ERβ” value is recorded as “decrease”.
